Columns and labels:
[1] = biological target: CYP3A4 (Homo sapiens, UniProt P08684); experiment: Cytochrome P450 (CYP450) Inhibition Assay, CYP3A4 (Vivid fluorescence, BOMCC substrate); details: human, P450 Baculosomes (recombinant CYP3A4), probe BOMCC (Vivid substrate)
[2] = tested on: sodium channel; experiment: Guanidine influx assay (14C-guanidine radiotracer flux, in vitro); format: cell-based, human or rat; details: guanidine influx assay using a known cell line that expresses a sodium channel
Outline: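 Aconitine holds channels open while 14C-guanidine enters human or rat sodium-channel-expressing cells in choline-substituted low-sodium saline, with test agent present at ambient temperature. Retained tracer is scintillation-counted and IC50 fitted by a four-parameter logistic model.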

Chain of CYP3A4 (P08684 whole entry): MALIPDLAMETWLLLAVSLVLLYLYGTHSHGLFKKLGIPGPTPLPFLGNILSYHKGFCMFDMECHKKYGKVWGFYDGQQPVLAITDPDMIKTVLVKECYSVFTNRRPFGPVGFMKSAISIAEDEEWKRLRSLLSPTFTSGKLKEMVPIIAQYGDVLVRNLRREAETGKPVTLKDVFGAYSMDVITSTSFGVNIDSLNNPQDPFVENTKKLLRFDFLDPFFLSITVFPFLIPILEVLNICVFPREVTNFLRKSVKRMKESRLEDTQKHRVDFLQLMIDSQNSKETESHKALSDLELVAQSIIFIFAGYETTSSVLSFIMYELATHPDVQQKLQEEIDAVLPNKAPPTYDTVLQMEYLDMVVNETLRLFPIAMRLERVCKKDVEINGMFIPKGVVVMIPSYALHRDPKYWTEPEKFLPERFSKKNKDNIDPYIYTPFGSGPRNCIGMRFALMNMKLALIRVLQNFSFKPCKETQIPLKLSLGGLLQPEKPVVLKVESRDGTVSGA

| Structure (SMILES) | inhibition at 10 µM [1] [%] | melting point | IC50 ([2]; activity level class) [µM] | IC50 [2] [µM] |
| --- | --- | --- | --- | --- |
| O=C1N(CCCOCc2ccccc2)c2ccccc2C12COc1cc3c(cc12)OCCO3 (stereo not drawn) [Example 9.43, 1′-[3-(benzyloxy)propyl]-2,3-dihydrospiro[furo[2,3-g][1,4]-benzodioxine-8,3′-indol]-2′(1′H)-one] | < 50 | 37 to 38 °C | 0.001 to 0.1 |  |
| CN(C)c1cccc(CN2C(=O)C3(COc4cc5c(cc43)OCCO5)c3ccccc32)n1 (stereo not drawn) [Example 32.2, 1-{[6-(dimethylamino)pyridin-2-yl]methyl}-2,3-dihydrospiro[furo[2,3-g][1,4]benzodioxine-8,3′-indol]-2′(1′H)-one] | > 50 | 196 to 197 °C |  | 0.001 to 0.1 |
| O=C1Nc2ccc(F)cc2C12COc1cc3c(cc12)CCO3 (stereo not drawn) [Example 3.4, 5′-fluoro-5,6-dihydrospiro[benzo[1,2-b:5,4-b′]difuran-3,3′-indol]-2′(1′H)-one] | > 50 | 257 to 259 °C | 1 to 10 |  |
| O=C1N(CCCOCc2ccccc2)c2ccccc2C12COc1cc3c(cc12)CCO3 (stereo not drawn) [Example 9.17, 1′-[3-(benzyloxy)propyl]-5,6-dihydrospiro[benzo[1,2-b:5,4-b′]difuran-3,3′-indol]-2′(1′H)-one] | > 50 | 112 to 113 °C | 0.1 to 1 |  |
| CN(C)c1ncc(CN2C(=O)C3(COc4cc5c(cc43)OCO5)c3ccccc32)s1 (stereo not drawn) [Example 11.1, 1′-{[2-(dimethylamino)-1,3-thiazol-5-yl]methyl}spiro[furo[2,3-f][1,3]benzodioxole-7,3′-indol]-2′(1′H)-one] | > 50 | 200 to 202 °C |  | 0.001 to 0.1 |
| O=C1N(Cc2ccc(C(F)(F)F)o2)c2ccccc2C12COc1cc(N[C@@H]3CCNC3)ccc12 (stereo partly drawn) [Example 11.52, 6-[(3R)-pyrrolidin-3-ylamino]-1′-{[5-(trifluoromethyl)furan-2-yl]methyl}spiro[1-benzofuran-3,3′-indol]-2′(1′H)-one] | > 50 | 122 to 125 °C |  | 0.1 to 1 |
| O=C1N(Cc2ccccn2)c2ccccc2C12COc1cc3[nH]ncc3cc12 (stereo not drawn) [Example 46.1, 1′-(pyridin-2-ylmethyl)-1H-spiro[furo[3,2-f]indazole-5,3′-indol]-2′(1′H)-one] | < 50 | 117 to 119 °C |  | 0.1 to 1 |
| O=C1N(Cc2cc(=O)[nH]c(=O)[nH]2)c2ccccc2C12COc1cc3c(cc12)OCO3 (stereo not drawn) [Example 5.38, 6-[(2′-oxospiro[furo[2,3-f][1,3]benzodioxole-7,3′-indol]-1′(2′H)-yl)methyl]pyrimidine-2,4(1H,3H)-dione] | < 50 | > 300 °C | 1 to 10 |  |
| CCOC(=O)N1C(=O)C2(COc3cc4c(cc32)OCCO4)c2ccccc21 (stereo not drawn) [Example 18, ethyl 2′-oxo-2,3-dihydrospiro[furo[2,3-g][1,4]benzodioxine-8,3′-indole]-1′(2′H)-carboxylate] | < 50 | 198 to 200 °C |  | 0.001 to 0.1 |
| CN1CCOc2cc3c(cc21)C1(CO3)C(=O)N(Cc2ccc(C(F)(F)F)o2)c2ccccc21.Cl (stereo not drawn) [Example 2.28, 1-methyl-1′-{[5-(trifluoromethyl)furan-2-yl]methyl}-2,3-dihydro-1H-spiro[furo[3,2-g][1,4]benzoxazine-8,3′-indol]-2′(1′H)-one hydrochloride] | > 50 | 105 °C (dec.) | 0.1 to 1 |  |
| CN1C(=O)[C@]2(COc3cc4c(cc32)OCO4)c2c(-c3ccoc3)cccc21 [Example 16.62, (7R)-4′-furan-3-yl-1′-methylspiro[furo[2,3-f][1,3]benzodioxole-7,3′-indol]-2′(1′H)-one] | > 50 | 144 to 145 °C |  | 0.1 to 1 |
| COc1ccc(CN2C(=O)C3(COc4cc5c(cc43)OCCO5)c3ccccc32)cn1 (stereo not drawn) [Example 5.15, 1′-[(6-methoxypyridin-3-yl)methyl]-2,3-dihydrospiro[furo[2,3-g][1,4]-benzodioxine-8,3′-indol]-2′(1′H)-one] | < 50 | 161 to 162 °C | 0.001 to 0.1 |  |
| CC(C)c1cc(CN2C(=O)C3(COc4cc5c(cc43)OCO5)c3ccccc32)on1 (stereo not drawn) [Example 1.6, 1′-[(3-isopropylisoxazol-5-yl)methyl]spiro[furo[2,3-f][1,3]benzodioxole-7,3′-indol]-2′(1′H)-one] | > 50 | 132 to 136 °C | 0.001 to 0.1 |  |
| O=C1N(Cn2nc3ccccc3n2)c2ccccc2C12COc1cc3c(cc12)CCO3 (stereo not drawn) [Example 9.13, 1′-(2H-benzotriazol-2-ylmethyl)-5,6-dihydrospiro[benzo[1,2-b:5,4-b′]difuran-3,3′-indol]-2′(1′H)-one] | > 50 | 102 to 105 °C | 0.001 to 0.1 |  |
| O=C1Nc2cccc(F)c2C12COc1cc3c(cc12)OCCO3 (stereo not drawn) [Example 3.33, 4′-fluoro-2,3-dihydrospiro[furo[2,3-g][1,4]benzodioxine-8,3′-indol]-2′(1′H)-one] | < 50 | 282 to 285 °C | 0.001 to 0.1 |  |
| CCc1ccccc1NC(=O)c1ccccc1CN1C(=O)C2(COc3cc4c(cc32)CCO4)c2ccccc21 (stereo not drawn) [Example 12.9, N-(2-ethylphenyl)-2-[(2′-oxo-5,6-dihydrospiro[benzo[1,2-b:5,4-b′]difuran-3,3′-indol]-1′(2′H)-yl)methyl]benzamide] | > 50 | 184 to 186 °C |  | 1 to 10 |
| O=C1Nc2ccccc2C12COc1cc3c(cc12)OCCO3 (stereo not drawn) [Example 3.10, 2,3-dihydrospiro[furo[2,3-g][1,4]benzodioxine-8,3′-indol]-2′(1′H)-one] | < 50 | > 250 °C | 0.001 to 0.1 |  |
| Cl.O=C1N(C[C@H]2CCCO2)c2ccccc2C12COc1cc(O[C@H]3CCNC3)ccc12 (stereo partly drawn) [Example 11.56, 6-[(3S)-pyrrolidin-3-yloxy]-1′-[(2R)-tetrahydrofuran-2-ylmethyl]spiro[1-benzofuran-3,3′-indol]-2′(1′H)-one hydrochloride] | < 50 | 119 to 121 °C |  | 1 to 10 |
| O=C1N(CC2CNCCO2)c2ccccc2C12COc1cc3c(cc12)OCCO3 (stereo not drawn) [Example 11.102, 1-(morpholin-2-ylmethyl)-2,3-dihydrospiro[furo[2,3-g][1,4]benzodioxine-8,3′-indol]-2′(1′1-1)-one] | < 50 | 154 to 159 °C |  | 1 to 10 |
| O=C1N(Cc2ccc(=O)[nH]c2)c2ccccc2C12COc1cc3c(cc12)OCCO3 (stereo not drawn) [Example 35, 1′-[(6-oxo-1,6-dihydropyridin-3-yl)methyl]-2,3-dihydrospiro[furo[2,3-g][1,4]benzodioxine-8,3′-indol]-2′(1′H)-one] | < 50 | 249 to 250 °C |  | 0.1 to 1 |
| O=C(NCc1cccs1)c1ccc(CN2C(=O)C3(COc4cc5c(cc43)CCO5)c3ccccc32)cc1 (stereo not drawn) [Example 12.38, 4-[(2′-oxo-5,6-dihydrospiro[benzo[1,2-b:5,4-b′]difuran-3,3′-indol]-1′(2′H)-yl)methyl]-N-(thiophen-2-ylmethyl)benzamide] | > 50 | 167 to 168 °C |  | 0.1 to 1 |
| CCCCCCCNC(=O)c1ccccc1CN1C(=O)C2(COc3cc4c(cc32)CCO4)c2ccccc21 (stereo not drawn) [Example 12.15, N-heptyl-2-[(2′-oxo-5,6-dihydrospiro[benzo[1,2-b:5,4-b′]difuran-3,3′-indol]-1′(2′H)-yl)methyl]benzamide] | > 50 | 196 to 198 °C |  | 1 to 10 |
| O=C1N(Cc2ccc(-c3ccccn3)cc2)c2ccccc2C12COc1cc3c(cc12)CCO3 (stereo not drawn) [Example 9.4, 1-(4-pyridin-2-ylbenzyl)-5,6-dihydrospiro[benzo[1,2-b:5,4-b′]difuran-3,3′-indol]-2′(1′H)-one] | < 50 | 217 to 219 °C | 0.1 to 1 |  |
| O=C1N(Cc2csc(-c3ccc(C(F)(F)F)cc3)n2)c2ccccc2C12COc1cc3c(cc12)OCO3 (stereo not drawn) [Example 6.5, 1′-({2-[4-(trifluoromethyl)phenyl]-1,3-thiazol-4-yl}methyl)spiro[furo[2,3-f][1,3]benzodioxole-7,3′-indol]-2′(1′H)-one] | > 50 | 151 to 153 °C | 0.1 to 1 |  |
| O=C1N(C[C@H]2CCCO2)c2cc(F)ccc2C12COc1cc3c(cc12)CCO3 (stereo partly drawn) [Example 9.19, 6′-fluoro-1′-[(2R)-tetrahydrofuran-2-ylmethyl]-5,6-dihydrospiro[benzo[1,2-b:5,4-b′]difuran-3,3′-indol]-2′(1′H)-one] | < 50 | 137 to 139 °C | 0.1 to 1 |  |
| O=C1N(Cc2ccc3c(c2)OCCO3)c2ccccc2C12COc1cc3c(cc12)CCO3 (stereo not drawn) [Example 4.26, 1′-(2,3-dihydro-1,4-benzodioxin-6-ylmethyl)-5,6-dihydrospiro[benzo[1,2-b:5,4-b′]difuran-3,3′-indol]-2′(1′H)-one] | < 50 | 173 to 175 °C | 0.001 to 0.1 |  |
| Nc1ccc2c(c1)OCC21C(=O)N(C[C@H]2CCCO2)c2ccccc21 (stereo partly drawn) [Example 11.47, 6-amino-1′-[(2R)-tetrahydrofuran-2-ylmethyl]spiro[1-benzofuran-3,3′-indol]-2′(1′H)-one] | > 50 | 71 to 74 °C |  | 1 to 10 |

Reference: US8263606B2 (Xenon Pharmaceuticals Inc., priority 2008, dated 2012)
